Experiment [1] concerns the target T1, HisAviTEV-hSTING (139-342) human wild-type protein (Homo sapiens, UniProt Q86WV6, H232R).
T1 construct: made in house; host or cells: E. coli Rosetta 2 (DE3), co-expressed with BirA (1-321)
Description: Protein thermal shift assay, STING C-terminal binding domain protein. Conditions: test compound final concentration 0.5 mM.

The target in experiment [2] is T2, HisAviTEV-hSTING (139-342) human REF-mutated protein (Homo sapiens, UniProt Q86WV6).
T2 construct: made in house; host or cells: E. coli Rosetta 2 (DE3), co-expressed with BirA (1-321)
T2 sequence (Q86WV6 with tags, fused parts or gaps, change not shown): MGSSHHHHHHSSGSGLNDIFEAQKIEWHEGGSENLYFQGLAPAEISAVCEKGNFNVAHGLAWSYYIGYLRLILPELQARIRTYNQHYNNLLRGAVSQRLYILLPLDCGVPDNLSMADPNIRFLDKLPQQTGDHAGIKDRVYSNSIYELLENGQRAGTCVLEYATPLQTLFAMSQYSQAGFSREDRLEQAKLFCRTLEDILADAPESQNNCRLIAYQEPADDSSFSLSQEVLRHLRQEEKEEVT
The description is as above. The conditions noted are these: test compound final concentration 0.5 mM.

Experiment [3] has as its target T3, HisAviTEV-hSTING (139-342) human AQ-mutated protein (Homo sapiens, UniProt Q86WV6, G230A/H232R/R293Q).
T3 construct: made in house; host or cells: E. coli Rosetta 2 (DE3), co-expressed with BirA (1-321)
The description is as above. The conditions noted are these: test compound final concentration 0.5 mM.

The target of experiment [4] is T4, His-Avi-TEV-mSTING (138-341) mouse wild-type protein (Mus musculus, UniProt Q3TBT3).
T4 construct: made in house; host or cells: E. coli Rosetta 2 (DE3), co-expressed with BirA (1-321)
T4 sequence (Q3TBT3 with tags, fused parts or gaps limits assumed): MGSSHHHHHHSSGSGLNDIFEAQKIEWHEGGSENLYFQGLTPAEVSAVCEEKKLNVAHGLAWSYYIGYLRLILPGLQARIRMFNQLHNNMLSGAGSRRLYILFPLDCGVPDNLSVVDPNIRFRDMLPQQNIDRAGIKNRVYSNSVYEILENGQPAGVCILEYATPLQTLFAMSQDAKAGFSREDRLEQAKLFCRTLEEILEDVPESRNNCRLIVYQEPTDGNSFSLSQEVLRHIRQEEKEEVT
The description is as above. Conditions: test compound final concentration 0.5 mM. As to the method: Each of these expression strains was added to a TB medium containing 100 μg/mL ampicillin, 50 μg/mL streptomycin, and 30 μg/mL kanamycin, cultured at 37° C., then exposed to 100 μM IPTG for inducible expression, and further cultured at 16° C.
The culture solution was centrifuged, and the resulting bacterial cells were suspended in 50 mM HEPES pH 8.0, 500 mM NaCl, 20 mM imidazole, 1 mM DTT, 5% (w/v) glycerol, Complete EDTA free, and then subjected to freeze-thawing. After addition of Lysozyme and DNase I, proteins were extracted by ultrasonic disintegration, and centrifugation was performed and the resulting supernatant was collected. The supernatant obtained was purified by using an AKTA express chromatography system (GE Healthcare, IL, US) with a HisTrap FF column (GE Healthcare), and eluted with buffer (20 mM HEPES pH 7.5, 120 mM NaCl, 20% Glycerol, 0.8 mM DTT) through a Superdex 200 16/60 column (GE Healthcare). […] The protein concentrations were measured by using a NanoDrop2000 (Thermo Fisher Scientific, MA, US), and the proteins were cryopreserved at −80° C. until use.
The binding ability of each compound to the STING C-terminal binding domain proteins was evaluated by protein thermal shift assay, which uses the elevation of thermal denaturation temperature of protein as an index.
Specifically, 3 μL of a test compound (final concentration: 0.5 mM), 3 μL of SYPRO Orange Protein Gel Stain (Thermo Fisher Scientific) (final concentration: 20-fold), and 6 μL of a STING protein were mixed with use of assay buffer (20 mM Tris-HCl pH 7.5, 120 mM NaCl) in a 384-well real-time PCR plate, and mixed together with a plate shaker. With a real-time PCR system (Thermo Fisher Scientific), the temperature was increased from 25° C. to 95° C. at a rate of 0.03° C./sec, and the thermal denaturation temperature of the protein was measured by using fluorescence emitted from SYPRO Orange as an index. From the measurement acquired, Tm (the midpoint of the unfolding transition) (° C.) was determined as a temperature at which the increase rate of fluorescence intensity was maximized by using the analysis software Protein Thermal Shift software (Thermo Fisher Scientific). The Tm value for a well with no compound was subtracted from the Tm value for each test compound to calculate the Tm shift caused by the compound as ΔTm (° C.).

Experiment [5] addresses Human STING (Homo sapiens, UniProt Q86WV6, G230A/H232R/R293Q/R71H). Description: Reporter gene assay, human STING agonist activity, THP1-Dual cells (HAQ-mutated), IRF pathway. The conditions noted are these: THP1-Dual cells IRF EC50, THP1-Dual cells (HAQ-mutated), 24 hours; 100% = maximum count with ML-RR-CDA·2Na+. (In general: In a reporter assay the amount or activity of a reporter protein is the signal.)

The results in this text go back to patent publication US12370263B2, “Cyclic dinucleotide derivative based antibody-drug conjugates” (DAIICHI SANKYO COMPANY, LIMITED, priority 2018, dated 2025).

SMILES strings stand for the structures.

T3 sequence (Q86WV6 with tags, fused parts or gaps G230A/H232R/R293Q): as the sequence (Q86WV6 with tags, fused parts or gaps, change not shown) above, with G131A, H133R, R194Q counted along it
Sequence of Human STING (Q86WV6 whole entry R71H/G230A/H232R/R293Q): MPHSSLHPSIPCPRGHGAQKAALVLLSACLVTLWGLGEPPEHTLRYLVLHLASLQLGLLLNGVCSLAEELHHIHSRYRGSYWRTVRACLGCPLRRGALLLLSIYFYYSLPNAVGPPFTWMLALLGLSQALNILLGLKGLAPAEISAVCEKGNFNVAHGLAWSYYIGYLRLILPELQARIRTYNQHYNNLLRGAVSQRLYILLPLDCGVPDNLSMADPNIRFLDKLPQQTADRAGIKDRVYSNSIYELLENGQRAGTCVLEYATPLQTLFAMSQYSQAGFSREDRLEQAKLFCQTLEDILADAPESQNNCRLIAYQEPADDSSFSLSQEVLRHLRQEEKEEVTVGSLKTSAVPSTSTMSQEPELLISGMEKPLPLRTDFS
T1 sequence (Q86WV6 with tags, fused parts or gaps H232R): as the sequence (Q86WV6 with tags, fused parts or gaps, change not shown) above, with H133R counted along it

In general, ΔTm refers to the shift of the melting midpoint relative to a reference. By EC50 is commonly meant the concentration needed to bring the measured effect to its halfway point. Higher therefore signals a less potent agent. Regarding `Nc1ncnc2c1ncn2[C@@H]1O[C@@H]2COP(=O)(S)O[C@H]3[C@@H](O)[C@H](n4cc5c6c(ncnc64)NCCC5)O[C@@H]3COP(=O)(S)O[C@@H]1[C@@H]2O` (single isomer, unassigned) [1a], the ΔTm at 500 µM is 8.4 °C in experiment [1], 3.4 °C in experiment [2], 12 °C in experiment [3] and 14.3 °C in experiment [4]. The molecule also displayed an EC50 in experiment [5] of 5900 nM.

In the case of `Nc1nc2c(ncn2[C@@H]2O[C@@H]3COP(=O)(S)O[C@H]4[C@@H](O)[C@H](n5cc6c7c(ncnc75)NCCC6)O[C@@H]4COP(=O)(S)O[C@@H]2[C@@H]3O)c(=O)[nH]1` (single isomer, unassigned) [4a], the ΔTm at 500 µM came out at 11.5 °C in experiment [1], 5.2 °C in experiment [2], 17 °C in experiment [3] and 17.5 °C in experiment [4]. Also, the EC50 in experiment [5] was 2100 nM.

For `Nc1nc2c(ncn2[C@@H]2O[C@@H]3COP(=O)(S)O[C@H]4[C@@H](O)[C@H](n5cc6c7c(ncnc75)NCCC6)O[C@@H]4COP(=O)(S)O[C@@H]2[C@@H]3O)c(=O)[nH]1` (single isomer, unassigned) [4b], in experiment [1], the “ΔTm Hu-WT” value was 9.8 °C. Further, the “ΔTm Hu-REF” value in experiment [2] worked out at 3.5 °C. Further, the “ΔTm Hu-AQ” value in experiment [3] stood at 13.1 °C. In experiment [4], the “ΔTm Ms-WT” value was 14.9 °C. The half-maximal effective concentration (EC50) in experiment [5] came out at 1500 nM.

Take `O=C(CO)NCCn1cnc2c(ncn2[C@@H]2O[C@@H]3COP(=O)(S)O[C@H]4[C@@H](O)[C@H](n5cc6c7c(ncnc75)NCCC6)O[C@@H]4COP(=O)(S)O[C@@H]2[C@@H]3O)c1=O` (single isomer, unassigned) [7a]: the ΔTm at 500 µM was 8 °C in experiment [1], 3.9 °C in experiment [2], 9.7 °C in experiment [3] and 11.5 °C in experiment [4]. In experiment [5], this molecule came in with an EC50 of 3500 nM.

For `O=C(CO)NCCn1cnc2c(ncn2[C@@H]2O[C@@H]3COP(=O)(S)O[C@H]4[C@@H](O)[C@H](n5cc6c7c(ncnc75)NCCC6)O[C@@H]4COP(=O)(S)O[C@@H]2[C@@H]3O)c1=O` (single isomer, unassigned) [7b], the “ΔTm Hu-WT” value in experiment [1] was 7.2 °C. Moreover, the “ΔTm Hu-REF” value in experiment [2] amounted to 2.8 °C. The “ΔTm Hu-AQ” value in experiment [3] was 9.5 °C. Further, the “ΔTm Ms-WT” value in experiment [4] came out at 13.2 °C. This molecule also yielded an EC50 in experiment [5] of 6100 nM.

In the case of `NCCNc1nc(N)c2ncn([C@@H]3O[C@@H]4COP(=O)(S)O[C@H]5[C@@H](O)[C@H](n6cc7c8c(ncnc86)NCCC7)O[C@@H]5COP(=O)(S)O[C@@H]3[C@@H]4O)c2n1` (single isomer, unassigned) [8a], the ΔTm at 500 µM came to 7.6 °C in experiment [1], 2.8 °C in experiment [2], 10.8 °C in experiment [3] and 11.5 °C in experiment [4]. For the same molecule, the response in experiment [5] was half-maximal at 3100 nM (EC50).

Turning to `Nc1nc(CO)nc2c1ncn2[C@@H]1O[C@@H]2COP(=O)(S)O[C@H]3[C@@H](O)[C@H](n4cc5c6c(ncnc64)NCCC5)O[C@@H]3COP(=O)(S)O[C@@H]1[C@@H]2O` (single isomer, unassigned) [12a], the ΔTm at 500 µM is 8 °C in experiment [1], 3 °C in experiment [2], 9.6 °C in experiment [3] and 11.9 °C in experiment [4].

As for `O=P1(S)OC[C@H]2O[C@@H](n3cc4c5c(ncnc53)NCCC4)[C@H](O)[C@@H]2OP(=O)(S)OC[C@H]2O[C@@H](n3cnc4c(CO)ncnc43)[C@H](O1)[C@@H]2O` (single isomer, unassigned) [17a], the ΔTm at 500 µM in experiment [1] is 7.3 °C; in experiment [2], 2.7 °C; in experiment [3] it was 10.7 °C; in experiment [4], 12.6 °C. Besides, the response in experiment [5] was half-maximal at 4400 nM (EC50).

In the case of `O=P1(S)OC[C@H]2O[C@@H](n3cc4c5c(ncnc53)NCCC4)[C@H](O)[C@@H]2OP(=O)(S)OC[C@H]2O[C@@H](n3cnc4c(CO)ncnc43)[C@H](O1)[C@@H]2O` (single isomer, unassigned) [17b], in experiment [1], the “ΔTm Hu-WT” value turned out to be 7.4 °C. Besides, in experiment [2], the “ΔTm Hu-REF” value was 2.2 °C. Also, the “ΔTm Hu-AQ” value in experiment [3] came out at 10.4 °C. In addition, the “ΔTm Ms-WT” value in experiment [4] was found to be 12.6 °C. The molecule further registered an EC50 in experiment [5] of 1000 nM.

Take `Nc1ncnc2c1ncn2[C@@H]1O[C@@H]2COP(=O)(S)O[C@H]3[C@@H](O)[C@H](n4cc5c6c(ncnc64)OCCC5)O[C@@H]3COP(=O)(S)O[C@@H]1[C@@H]2O` (single isomer, unassigned) [20a]: the ΔTm at 500 µM is 7.5 °C in experiment [1], 3.7 °C in experiment [2], 9.7 °C in experiment [3] and 12.4 °C in experiment [4].

In the case of `Nc1ncnc2c1ncn2[C@@H]1O[C@@H]2COP(=O)(S)O[C@H]3[C@@H](O)[C@H](n4cc5c6c(ncnc64)SCCC5)O[C@@H]3COP(=O)(S)O[C@@H]1[C@@H]2O` (single isomer, unassigned) [23a], the ΔTm at 500 µM in experiment [1] was found to be 9.7 °C; in experiment [2] it was 4.2 °C; in experiment [3] it was 12.2 °C; in experiment [4] it was 15.6 °C. The molecule also showed an EC50 in experiment [5] of 2600 nM.

Turning to `O=c1[nH]cnc2c1ncn2[C@@H]1O[C@@H]2COP(=O)(S)O[C@H]3[C@@H](O)[C@H](n4cc5c6c(ncnc64)NCCC5)O[C@@H]3COP(=O)(S)O[C@@H]1[C@@H]2O` (single isomer, unassigned) [25a], the ΔTm at 500 µM in experiment [1] was 11.4 °C; in experiment [2], 6.2 °C; in experiment [3], 15 °C; in experiment [4], 16 °C. This molecule showed a concentration giving a half-maximal response (EC50) in experiment [5] of 1300 nM.

With `O=c1[nH]cnc2c1ncn2[C@@H]1O[C@@H]2COP(=O)(S)O[C@H]3[C@@H](O)[C@H](n4cc5c6c(ncnc64)NCCC5)O[C@@H]3COP(=O)(S)O[C@@H]1[C@@H]2O` (single isomer, unassigned) [25b], the “ΔTm Hu-WT” value in experiment [1] was 10.6 °C. In experiment [2], the “ΔTm Hu-REF” value turned out to be 4.6 °C. The “ΔTm Hu-AQ” value in experiment [3] worked out at 13.1 °C. For the same molecule, the “ΔTm Ms-WT” value in experiment [4] turned out to be 15.8 °C. This molecule also came in with an EC50 in experiment [5] of 900 nM.

Regarding `O=c1c2ncn([C@@H]3O[C@@H]4COP(=O)(S)O[C@H]5[C@@H](O)[C@H](n6cc7c8c(ncnc86)NCCC7)O[C@@H]5COP(=O)(S)O[C@@H]3[C@@H]4O)c2ncn1CCCO` (single isomer, unassigned) [26b], the ΔTm at 500 µM is 9.1 °C in experiment [1], 3.9 °C in experiment [2], 11.5 °C in experiment [3] and 14.1 °C in experiment [4]. Also, in experiment [5], a half-maximal effect (EC50) was put at 1200 nM.

As for `O=c1c2ncn([C@@H]3O[C@@H]4COP(=O)(S)O[C@H]5[C@@H](F)[C@H](n6cc7c8c(ncnc86)NCCC7)O[C@@H]5COP(=O)(S)O[C@@H]3[C@@H]4O)c2ncn1CCO` (single isomer, unassigned) [34a], the thermal shift (ΔTm) at 500 µM in experiment [1] was 14.7 °C; in experiment [2], 8.8 °C; in experiment [3], 18.9 °C; in experiment [4] it was 20.3 °C. Moreover, in experiment [5], the EC50 amounted to 200 nM.

For `NCCn1cnc2c(ncn2[C@@H]2O[C@@H]3COP(=O)(S)O[C@H]4[C@@H](F)[C@H](n5cc6c7c(ncnc75)NCCC6)O[C@@H]4COP(=O)(S)O[C@@H]2[C@@H]3O)c1=O` (single isomer, unassigned) [35a], the ΔTm at 500 µM in experiment [1] was 11 °C; in experiment [2] it was 6.6 °C; in experiment [3], 13.1 °C; in experiment [4], 13.5 °C. The molecule further gave an EC50 in experiment [5] of 2000 nM.

As for `NCCn1cnc2c(ncn2[C@@H]2O[C@@H]3COP(=O)(S)O[C@H]4[C@@H](F)[C@H](n5cc6c7c(ncnc75)NCCC6)O[C@@H]4COP(=O)(S)O[C@@H]2[C@@H]3O)c1=O` (single isomer, unassigned) [35b], in experiment [1], the “ΔTm Hu-WT” value is 10.3 °C. In experiment [2], the “ΔTm Hu-REF” value worked out at 5.8 °C. Further, the “ΔTm Hu-AQ” value in experiment [3] was 12.6 °C. For the same molecule, in experiment [4], the “ΔTm Ms-WT” value is 14.2 °C. In addition, the EC50 in experiment [5] was 3400 nM.
